Test results from PMC9786103, “Potent and Selective Inhibition of CYP1A2 Enzyme by Obtusifolin and Its Chemopreventive Effects” (Pharmaceutics, 2022).
Like-named read-outs stand apart in the source and are kept apart here.

Key:
[1] = biological target: T1, CYP1A2 (Homo sapiens, UniProt P05177); experiment: CYP1A2-mediated phenacetin O-deethylase (POD) activity in pooled human liver microsomes
T1 sequence (P05177 1-516): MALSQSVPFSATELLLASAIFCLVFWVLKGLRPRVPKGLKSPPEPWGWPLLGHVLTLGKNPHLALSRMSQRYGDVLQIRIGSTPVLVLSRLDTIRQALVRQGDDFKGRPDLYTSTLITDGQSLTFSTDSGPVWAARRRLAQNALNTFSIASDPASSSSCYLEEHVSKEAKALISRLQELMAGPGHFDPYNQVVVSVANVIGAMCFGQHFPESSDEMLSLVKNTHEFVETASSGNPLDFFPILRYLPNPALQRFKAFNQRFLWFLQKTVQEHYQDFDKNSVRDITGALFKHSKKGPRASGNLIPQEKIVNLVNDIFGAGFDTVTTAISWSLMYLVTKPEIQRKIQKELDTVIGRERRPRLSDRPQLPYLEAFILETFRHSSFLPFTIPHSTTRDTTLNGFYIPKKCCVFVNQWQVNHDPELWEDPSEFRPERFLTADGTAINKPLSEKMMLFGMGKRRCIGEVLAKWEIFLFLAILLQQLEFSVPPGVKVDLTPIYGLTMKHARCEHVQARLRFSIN
Experimental: (§1) The inhibitory potential of five major bioactive compounds from Cassiae semen against CYP1A2-mediated phenacetin O-deethylase (POD) activity was evaluated using previously developed methods with minor modifications. Briefly, the compounds were dissolved in methanol. The incubation mixtures containing pHLMs (0.25 mg/mL), phenacetin (100 µM), and inhibitor (0, 0.5, 2, 5, 20, or 50 µM) were pre-incubated at 37 °C for 5 min. An NADPH-generating system (NGS, 1.3 mM β-NADP^+, 3.3 mM G6P, 1.0 U/mL G6PDH, and 3.3 mM magnesium chloride) was introduced after pre-incubation to initiate the reaction, and further incubated for 15 min. The reaction was quenched by the addition of 50 µL ice-cold acetonitrile containing internal standard (IS; 7nM trimipramine). Aliquots of supernatants were analyzed by liquid chromatography–tandem mass spectrometry (LC-MS/MS, LCMS 8060 system, Shimadzu, Kyoto, Japan). All microsomal incubations were repeated three times.
(§2) The inhibitory potential of obtusifolin against the biotransformation of eight P450 probe substrates was examined using previously reported methods with slight changes. The following P450 isoform-specific substrates were used: coumarin (CYP2A6); bupropion (CYP2B6); amodiaquine (CYP2C8); tolbutamide (CYP2C9); omeprazole (CYP2C19); dextromethorphan (CYP2D6); chlorzoxazone (CYP2E1); and midazolam (CYP3A). Mixtures of pooled HLM, P450 substrates, and obtusifolin (0, 0.05, 0.2, 0.5, 2, 5, or 10 µM for CYP1A2; and 0, 0.5, 2, 5, 20, or 50 µM for the other P450 isoforms) were pre-incubated (5 min, 37 °C). NGS was introduced to start the reaction, which was followed by an additional incubation (15 min). Following reaction termination, aliquots of the supernatants were analyzed with LC-MS/MS.
(§3) Reverse phase column (Kinetex XB-C18, 100 × 2.10 mm; Phenomenex, Torrance, CA, USA) and triple-quadrupole mass spectrometer (LCMS 8060, Shimadzu, Kyoto, Japan) with an ultra high-performance LC system (Nexera X2, Shimadzu) analyze all the metabolites. Mobile phases were 0.1% formic acid in water (A) and 0.1% formic acid in acetonitrile (B). The elution condition was as follows: 0–0.5 min (B: 8%), 0.5–5 min (B: 8%→60%), 5–6 min (B: 60%), 6–6.1 min (B: 60%→8%), and 6.1–10 min (B: 8%) for the analysis of metabolites of the nine P450 substrates; and 0–1 min (B: 5%), 1–5 min (B: 5%→90%), and 5.1–7 min (B: 90%→5%) for the analysis of resorufin. Electrospray ionization was performed in the positive- and negative-ion modes at 4.0 and −3.5 kV, respectively. For each metabolite, quantitation was carried out in selected reaction monitoring (SRM) mode using the following precursor-to-product ion transition: m/z 152 > 110 for acetaminophen (CYP1A2), m/z 214 > 186 for resorufin (CYP1A1 and CYP1A2), m/z 163 > 107 for 7-hydroxycoumarin (CYP2A6), m/z 256 > 238 for 6-hydroxybupropion (CYP2B6), m/z 328 > 283 for N-desethylamodiaquine (CYP2C8), m/z 287 > 89 for 5-hydroxytolbutamide (CYP2C9), m/z 362 > 214 for 4-hydroxyomeprazole ([…]), m/z 258 > 157 for dextrorphan (CYP2D6), m/z 184 > 120 for 6-hydroxychlorzoxazone (CYP2E1), m/z 342 > 203 for 1′-hydroxymidazolam (CYP3A), and m/z 295 > 100 for trimipramine (IS).
(§4) WinNonlin software (Pharsight, Mountain View, CA, USA) was used to calculate IC50 values. Based on Lineweaver–Burk double reciprocal plots, secondary plots of Lineweaver–Burk plots versus obtusifolin concentrations, and visual inspection of Dixon plots, the type of inhibition and apparent kinetic parameters for inhibitory activity (Ki) were estimated.

[2] = biological target: T2, CYP1A2 versus CYP2A6, CYP2B6, CYP2C8, CYP2C9, CYP2C19, CYP2D6, CYP2E1, CYP3A (Homo sapiens, UniProt P05177); experiment: as above; details: human, pooled human liver microsomes
T2 sequence (P05177 1-516): T1 sequence (P05177 1-516)
Experimental: as §1, §2, §3, §4

[3] = read-out: Maximum concentration (Cmax) of obtusifolin in rat blood, cited from earlier work

Which results are given for `COc1c(O)c(C)cc2c1C(=O)c1c(O)cccc1C2=O` [Obtusifolin, obtusifolin]?
IC50 [1]: 190 ± 10 nM; inhibition at 15 min, 0.5 µM ([1]; human, pooled human liver microsomes, probe phenacetin (100 µM)): 73.3%; selectivity ratio at 15 min [2]: > 150; Cmax ([3]; single oral Semen Cassiae extracts 1.25 g/kg (5.01 mg/g obtusifolin)): 860 nM; Cmax ([3]; single oral obtusifolin 1.3 mg/kg): 540 nM
